The test system of this assay is HCV 1b genotype. The assay is described as follows: microbe, parasite or virus in culture. The class given is cell-based, Hepatitis C virus. The protocol: An HCV Replicon assay was utilized in the present disclosure, and was prepared, conducted and validated as described in commonly owned PCT/US2006/022197 and in O'Boyle et. al. Antimicrob Agents Chemother. 2005 April; 49(4):1346-53. Assay methods incorporating luciferase reporters have also been used as described (Apath.com).
HCV-neo replicon cells and replicon cells containing resistance substitutions in the NS5A region were used to test the currently described family of compounds.

The mark [1] stands for this setting: HCV 1b replicon, read-out: Range: EC50 ranges against HCV 1b.
Where [2] appears, read: Hepatitis C virus, HCV 1b replicon, read-out: Range: EC50 ranges against HCV 1b.

Read-outs that look alike come from different tables or passages of the source.

In the case of `COC(=O)NC(C(=O)N1CCOCC1c1ncc(-c2ccc(-c3ccc(-c4cnc(C5COCCN5C(=O)C(NC(=O)OC)C5CCOC6(CC6)C5)[nH]4)cc3)cc2)[nH]1)C1CCOC2(CC2)C1` [OL8, dimethyl (((3R,3′R)-3,3′-(5,5'-([1,1′-biphenyl]-4,4′-diyl)bis(1H-imidazole-5,2-diyl))bis(morpholine-4,3-diyl))bis(2-oxo-1-(4-oxaspiro[2.5]octan-7-yl)ethane-2,1 diyl))dicarbamate], the EC50 (read-out: Range: EC50 ranges against HCV 1b) lay in the range of 100 to 900 pM.

Turning to `COC(=O)NC(C(=O)N1CCCC1c1nc2cc(C#Cc3ccc4[nH]c(C5CCCN5C(=O)C(NC(=O)OC)C5CCOC6(CC6)C5)nc4c3)ccc2[nH]1)C1CCOC2(CC2)C1` [OL9, dimethyl (((2S,2′S)-2,2′-(5,5′-(ethyne-1,2-diyl)bis(1H-benzo[d]imidazole-5,2-diyl))bis(pyrrolidine-2,1-diyl))bis(2-oxo-1-(4-oxaspiro[2.5]octan-7-ypethane-2,1-diyl))dicarbamate], the EC50 under setting [1] lay within 100 to 900 pM.

For `COC(=O)N[C@H](C(=O)N1[C@@H](C)CC[C@H]1c1nc(-c2ccc(-c3ccc(-c4c[nH]c([C@@H]5CC[C@H](C)N5C(=O)[C@@H](NC(=O)OC)C56CC(C(F)(F)F)(C5)C6)n4)cc3)cc2)c[nH]1)C12CC(C(F)(F)F)(C1)C2` [OL12, dimethyl (4,4′-biphenyldiylbis(1H-imidazole-4,2-diyl((2S,5S)-5-methyl-2,1-pyrrolidinediyl)((1S)-2-oxo-1-(3-(trifluoromethyl)bicyclo [1.1.1]pent-1-yl)-2,1-ethanediyl)))biscarbamate], the EC50 under setting [2] lay within 100 to 900 pM.

As to `COC(=O)NC(C(=O)N1C[C@@H](C)C[C@H]1c1nc2cc(C#Cc3ccc4c(ccc5nc([C@@H]6C[C@H](C)CN6C(=O)C(NC(=O)OC)C6CCOC7(CC7)C6)[nH]c54)c3)ccc2[nH]1)C1CCOC2(CC2)C1` (some centres unmarked) [QC9], under setting [1], the EC50 lay within 5.01 to 100 pM.

`COC(=O)NC(C(=O)N1CCC[C@H]1c1nc2cc(-c3ccc4c(ccc5nc([C@@H]6CCCN6C(=O)C(NC(=O)OC)C6CCOC7(CC7)C6)[nH]c54)c3)ccc2[nH]1)C1CCOC2(CC2)C1` (stereo partly drawn) [QC10, methyl (2-((2S)-2-(7-(2-((2S)-1-(((methoxycarbonyl)amino)(4-oxaspiro[2.5]oct-7-yl)acetyl)-2-pyrrolidinyl)-1H-benzimidazol-5-yl)-1H-naphtho[1,2-d]imidazol-2-yl)-1-pyrrolidinyl)-1-(4-oxaspiro[2.5]oct-7-yl)-2-oxoethyl)carbamate]: the EC50 was 259 pM (Hepatitis C virus, HCV 1b replicon, read-out: 1b (μM): EC50 (Effective 50% inhibitory concentration) against the HCV 1b genotype) and 100 to 900 pM under setting [2].

Turning to `COC(=O)NC(C(=O)N1[C@@H]2C[C@@H]2C[C@H]1c1nc(-c2ccc(-c3ccc4c(c3)CCc3[nH]c([C@@H]5C[C@H]6C[C@H]6N5C(=O)C(NC(=O)OC)C5CCOC6(CC6)C5)nc3-4)cc2)c[nH]1)C1CCOC2(CC2)C1` (stereo partly drawn) [QC11, methyl (2-((1R,3S,5R)-3-(4-(4-(2-((1R,3S,5R)-2-(((methoxycarbonyl)amino)(4-oxaspiro[2.5]oct-7-yl)acetyl)-2-azabicyclo[3.1.0]hex-3-yl)-4,5-dihydro-3H-naphtho[1,2-d]imidazol-7-yl)phenyl)-1H-imidazol-2-yl)-2-azabicyclo[3.1.0]hex-2-yl)-1-(4-oxaspiro[2.5]oct-7-yl)-2-oxoethyl)carbamate], under setting [2], the EC50 was 5.01 to 100 pM.

Consider `COC(=O)NC(C(=O)N1CCC[C@H]1c1nc2cc(-c3ccc(Oc4cccc5[nH]c([C@@H]6CCCN6C(=O)C(NC(=O)OC)C6CCOC7(CC7)C6)nc45)cc3)ccc2[nH]1)C1CCOC2(CC2)C1` (stereo partly drawn) [QC15, methyl (2-((2S)-2-(5-(4-((2-((2S)-1-(((methoxycarbonyl)amino)(4-oxaspiro[2.5]oct-7-yl)acetyl)pyrrolidin-2-yl)-1H-benzimidazol-4-yl)oxy)phenyl)-1H-benzimidazol-2-yl)pyrrolidin-1-yl)-1-(4-oxaspiro[2.5]oct-7-yl)-2-oxoethyl)carbamate], for which, under setting [2], the EC50 lay within 5.01 to 100 pM.

In the case of `COC(=O)N[C@H](C(=O)N1[C@H](c2nc(-c3ccc(-c4ccc(-c5c[nH]c([C@@H]6C[C@@]7(C)C[C@H]7N6C(=O)[C@@H](NC(=O)OC)[C@H]6CCOC7(CC7)C6)n5)cc4)cc3)c[nH]2)C[C@@]2(C)C[C@@H]12)[C@H]1CCOC2(CC2)C1` [QC19, dimethyl (4,4′-biphenyldiylbis(1H-imidazole-4,2-diyl((1R,3S,5R)-5-methyl-2-azabicyclo[3.1.0]hexane-3,2-diyl)(1-(4-oxaspiro[2.5]oct-7-yl)-2-oxo-2,1-ethanediyl)))biscarbamate], the EC50 under setting [2] fell in the range of 5.01 to 100 pM.

On to “dimethyl (1H,1′H-7,7′-binaphtho[1,2-d]imidazole-2,2′-diylbis((2S)-2,1-pyrrolidinediyl(1-(4-oxaspiro[2.5]oct-7-yl)-2-oxo-2,1-ethanediyl)))biscarbamate [QC13]”, for which the EC50 under setting [1] was 5.01 to 100 pM.

“methyl (2-((2S)-2-(7-(2-((2S)-1-(((methoxycarbonyl)amino)(4-oxaspiro[2.5]oct-7-yl)acetyl)-2-pyrrolidinyl)-1H-benzimidazol-5-yl)-4,5-dihydro-1H-naphtho[1,2-d]imidazol-2-yl)-1-pyrrolidinyl)-1-(4-oxaspiro[2.5]oct-7-yl)-2-oxoethyl)carbamate [QC12]”: the EC50 under setting [1] lay in the range of 100 to 900 pM.

The values above are taken from US9561212B2, “Hepatitis C virus inhibitors” (BRISTOL-MYERS SQUIBB COMPANY, priority 2012, dated 2017).
